{
  "source": "patent US7129213B2",
  "about": "“Tripeptides and tripeptide derivatives for the treatment of neurodegenerative diseases” (Neurotell AG, priority 2002, dated 2006)",
  "key": {"[1]": {"settings": "literature values; cited from earlier work"}, "[2]": {"assay": "Metabolic stability in rat hepatocytes", "type": "in vitro ADME", "settings": "male, Wistar, freshly isolated rat hepatocytes in suspension, 10^6 cells/ml, analysed over 24 h, read-out: T½ (converted)", "excerpt": "Hepatocytes from adult male Wistar rats (IFFA Credo, L'Arbresle, France) were isolated by an in situ liver perfusion using collagenase (purchased from Sigma (St. Louis, Mo., U.S.A), according to a procedure described by Seglen (Preparation of isolated rat liver cell, Methods Cell Biol. 13, 29–83, 1976) and modified by Williams et al. (Rat hepatocyte primary culture. III. Improved dissociation and attachment techniques and the enhancement of survival by culture medium, in vitro 13: 809–817, 1977). After estimation of cell viability by the peripheral refractoriness of intact cells in phase contrast microscopy and the trypan blue test, freshly isolated hepatocytes were washed in basal William's medium E (WME) supplemented with 10% (v/v) fetal calf serum, 70 μM cortisol, 2 mM L-glutamine, 10 mM HEPES buffer, and 4 mM NaOH. […]\nEach substance of each concentration will be analysed 10 times during 24 h (1 h, 2 h, 4 h, 6 h, 8 h, 10 h, 12 h, 16 h, 20 h, 24 h)."}},
  "note": "Read-outs that look alike come from different tables or passages of the source.",
  "data": [
    {"molecule": "thyreoliberin [TRH, reference compound]", "values": [
      {"measurement": "Pampa Flux (%) Mean ± SEM", "setting": "500 μM in Tris-buffer pH 7,4, diffusion time 16 h", "result": "<10", "unit": "%"},
      {"measurement": "PAMPA classification, predicted absorption after peroral application", "setting": "classification by flux rate", "result": "weakly absorbed"}
    ]},
    {"molecule": "C[C@]12CCC(=O)C=C1CC[C@@H]1[C@@H]2[C@@H](O)C[C@@]2(C)[C@H]1CC[C@]2(O)C(=O)CO", "note": "[Hydrocortisone]", "values": [
      {"measurement": "flux rates published by Kansy et al.", "setting": "[1]", "result": 52, "unit": "%"}
    ]},
    {"molecule": "O=c1ccc2ccccc2o1", "note": "[Coumarin, reference compound]", "values": [
      {"measurement": "flux rates published by Kansy et al.", "setting": "[1]", "result": 66, "unit": "%"},
      {"measurement": "Pampa Flux (%) Mean ± SEM", "setting": "PAMPA, 16 h, 500 μM, pH 7", "result": "72 ± 2", "unit": "%"}
    ]},
    {"molecule": "CCNC(=O)[C@@H]1CCCN1C(=O)[C@H](Cc1ccccc1)NC(=O)[C@H]([C@@H](C)CC)N(CC)CC", "note": "[N,N-Diethyl-Ile-Phe-ProNHEt, N,N-diethyl-isoleucyl-phenylalanyl-L-proline ethylamide]", "values": [
      {"measurement": "PAMPA classification, predicted absorption after peroral application", "setting": "PAMPA", "result": "medium to highly absorbed"}
    ]},
    {"molecule": "CC[N+](C)(C)Cc1ccccc1Br", "note": "[Bretylium, reference compound]", "values": [
      {"measurement": "Pampa Flux (%) Mean ± SEM", "setting": "PAMPA, 16 h, 500 μM, pH 7", "result": 0, "unit": "%"}
    ]},
    {"molecule": "CC[C@H](C)[C@H](NC(C)C)C(=O)N[C@H](C(=O)N1CCC[C@H]1C(N)=O)[C@@H](C)CC", "note": "[N-Isopropyl-Ile-Ile-ProNH2]", "values": [
      {"measurement": "half-life", "setting": "[2]", "result": 2.6, "unit": "h"},
      {"measurement": "PAMPA classification, predicted absorption after peroral application", "setting": "PAMPA", "result": "medium to highly absorbed"}
    ]},
    {"molecule": "CC[C@H](C)[C@H](NC(=O)CN(CC)CC)C(=O)N1CCC[C@H]1C(N)=O", "note": "[N,N-Diethyl-Gly-Ile-ProNH2]", "values": [
      {"measurement": "PAMPA classification, predicted absorption after peroral application", "setting": "PAMPA", "result": "medium to highly absorbed"}
    ]},
    {"molecule": "CC[C@H](C)[C@H](NC(=O)[C@H]([C@@H](C)CC)N(CC)CC)C(=O)N1CCC[C@H]1C(N)=O", "note": "[N,N-Diethyl-Ile-Ile-ProNH2, N,N-diethyl-isoleucyl-isoleucyl-prolineamide]", "values": [
      {"measurement": "PAMPA classification, predicted absorption after peroral application", "setting": "PAMPA", "result": "medium to highly absorbed"}
    ]}
  ]
}
